Data published in patent EP0731697B1, “SSI TYRPHOSTINS AND PHARMACEUTICAL COMPOSITIONS” (priority 1993, dated 1995).
Read-outs that look alike come from different tables or passages of the source.

What was measured:
TNF-α [1] = test: LPS induced increase in serum TNF-α levels in mice; format: in vivo; settings: for serum TNF-α levels: 400 ug/mouse i.p. 2 hrs prior to LPS, bled after 2 hours
Text: TNF-α was implicated to mediate many of the toxic effect of LPS. For example, the effect of SSI 3 on serum TNF-α levels in mice which had been treated with LPS was investigated. LPS induced a rapid increase in serum TNF-α levels. […] […] The bioassay gave somewhat higher levels compared to the ELISA. This finding may indicate that the serum from LPS-treated mice contained in addition to TNF-α, other cytotoxic factors.
The amount of TNF-α was quantitated by assessing the extent of killing of the TNF-α sensitive cell line (A9) essentially as described by Ruff and Gilford, G. E. J. Immunol. 125, 1671-1677, (1980). Briefly, mouse A9 fibroblasts were plated in 96-well flat-bottom micro-titer plates at 30,000 cells /0.1 ml to establish a dense monolayer. After incubation for 24 hr at 37 C in a humidified 5% CO2 atmosphere, cycloheximide was added to a final concentration of 50 ug/ml and 100 ul of serially diluted test samples were added to the wells. After incubation for additional 18 hr the supernatants were carefully aspirated, the monolayer were washed twice with PBS and 200 ul of neutral red solution (0.02%) was added. After incubation for 2 hr, cells were washed and the dye that had been absorbed by the live cells was extracted using 200 ul of 50% ethanol. The concentration of the dye was determined by an ELISA autoreader using a 550 nm filter. Murine TNF-α ELISA kit from ENDOGEN Inc., was used for quancitation of murine TNF-α.

[2] = system: murine peritoneal macrophages; test: NO2- production by periodate-activated murine peritoneal macrophages; format: cell-based
Method: Nitrite (NO2-) levels were determined in supernatants at the time indicated, as described herein. (Table 5) Values are expressed as means of triplicate cultures. […] Two additional experiments yielded similar results.
NO2- the product of NO oxidation is used to determine NO produced. Nitrite concentration in supernatants of macrophages was measured by a microplate assay method. 100 ul aliquots of supernatants were incubated with an equal volume of Griess reagent (1% sulfanilamide/O.1% naphthylethylene diamine dihydrochloride/2.5% H3PO4) at room temperature for 10 min. The absorbance at 550nm was determined in a microplate reader. Sodium nitrite was used as a standard.
Mice were injected i.p. with 1 ml sodium periodate (5mM). Three to 4 days later, macrophages were washed from the peritoneal cavity with PBS. After centrifugation at 170g for 10 min at […], the cell pellet was resuspended in RPMI 1640 containing 10% heat-inactivated new born calf serum. Adherent macrophage monolayers were obtained by plating the cells in 96-well plastic trays at 4x10^5 cells/well for 2 hr at 37°C in 5% CO2/air. Nonadherent cells were removed by suction and complete medium was added. […]

p42^MAPK = test: LPS-induced tyrosine phosphorylation in macrophages; format: cell-based; settings: murine peritoneal macrophages pre-treated with protective concentrations
Text: LPS-induced tyrosine phosphorylation of a 42 kD protein in murine peritoneal macrophages was inhibited by pre-treating the cells as before with protective concentrations of SSI 3. This protein band was identified as p42^MAPK. […] (Stefanova et al., supra.)

mice [3] = test: LPS toxicity and mortality in mice sensitized with galactosamine; format: in vivo, mice (strain (CD1))
Method: In this model for organ failure, mice (strain (CD1)) are injected (i.p.) simultaneously with galactosamine (18 mg/mouse) and LPS (50 ng/mouse). The LD50 of LPS used in this model is approximately 30,000 lower than the LD50 of LPS used alone. The main toxic manifestation in this model is liver damage and mice develop severe hypoglycemia and die within 7-8 hours.
Serial blood glucose determinations were done in individual animals (2 mice per group). […] Administration of the tyrphostins SSI 3, 400 ug/mouse or SSI 17, 200 ug/mouse 2 hours prior to galactosamine and LPS, prevents hypoglycemia (blood glucose level were approximately […] at 0 and the same after 24 hours) and mortality for over 5 days.

granulocytes = test: LPS-induced granulocyte accumulation in lungs and blood leukocyte changes; format: in vivo, Mouse
Text: As shown, tyrphostins exert a dramatic protective effect against LPS-induced lethal toxicity. Of the effects studied, only LPS-induced accumulation of granulocytes in the lungs and alteration in blood lymphocyte and granulocytes were not affected by SSI 3. […] The indication is therefore that tyrphostins are effective in preventing septic shock following Gram-negative sepsis, experimentally or clinically.
Mouse blood leukocyte count and differential analysis were done using Cell-Dyn 1600, Hematology Analyzer (Sequoia Turner Corporation, U.S.A).

mice [4] = system: mice
[5] = system: Murine fibroblastic cells (A9)
Method: Tyrphostins at different concentration were added 2 hr prior to TNF. After 24 hrs cells viability was determined by vital staining using neutral red.
Recombinant human TNFα is added to a mouse fibroblastic cell line (A9), cultured in the presence of cyclohexamine and cell viability is monitored after 20 hours. […] The percentage of live cells was measured from 2 hours prior to administration until 4 hours after administration for a control and for TNF at concentrations of 0.2 ng/ml, 0.05 ng/ml, and 1.0 ng/ml.

EGF receptor = EGF receptor (Homo sapiens, UniProt P00533); settings: even at concentrations above 100 uM; cited from earlier work
EGF receptor, sequence (P00533 25-1210): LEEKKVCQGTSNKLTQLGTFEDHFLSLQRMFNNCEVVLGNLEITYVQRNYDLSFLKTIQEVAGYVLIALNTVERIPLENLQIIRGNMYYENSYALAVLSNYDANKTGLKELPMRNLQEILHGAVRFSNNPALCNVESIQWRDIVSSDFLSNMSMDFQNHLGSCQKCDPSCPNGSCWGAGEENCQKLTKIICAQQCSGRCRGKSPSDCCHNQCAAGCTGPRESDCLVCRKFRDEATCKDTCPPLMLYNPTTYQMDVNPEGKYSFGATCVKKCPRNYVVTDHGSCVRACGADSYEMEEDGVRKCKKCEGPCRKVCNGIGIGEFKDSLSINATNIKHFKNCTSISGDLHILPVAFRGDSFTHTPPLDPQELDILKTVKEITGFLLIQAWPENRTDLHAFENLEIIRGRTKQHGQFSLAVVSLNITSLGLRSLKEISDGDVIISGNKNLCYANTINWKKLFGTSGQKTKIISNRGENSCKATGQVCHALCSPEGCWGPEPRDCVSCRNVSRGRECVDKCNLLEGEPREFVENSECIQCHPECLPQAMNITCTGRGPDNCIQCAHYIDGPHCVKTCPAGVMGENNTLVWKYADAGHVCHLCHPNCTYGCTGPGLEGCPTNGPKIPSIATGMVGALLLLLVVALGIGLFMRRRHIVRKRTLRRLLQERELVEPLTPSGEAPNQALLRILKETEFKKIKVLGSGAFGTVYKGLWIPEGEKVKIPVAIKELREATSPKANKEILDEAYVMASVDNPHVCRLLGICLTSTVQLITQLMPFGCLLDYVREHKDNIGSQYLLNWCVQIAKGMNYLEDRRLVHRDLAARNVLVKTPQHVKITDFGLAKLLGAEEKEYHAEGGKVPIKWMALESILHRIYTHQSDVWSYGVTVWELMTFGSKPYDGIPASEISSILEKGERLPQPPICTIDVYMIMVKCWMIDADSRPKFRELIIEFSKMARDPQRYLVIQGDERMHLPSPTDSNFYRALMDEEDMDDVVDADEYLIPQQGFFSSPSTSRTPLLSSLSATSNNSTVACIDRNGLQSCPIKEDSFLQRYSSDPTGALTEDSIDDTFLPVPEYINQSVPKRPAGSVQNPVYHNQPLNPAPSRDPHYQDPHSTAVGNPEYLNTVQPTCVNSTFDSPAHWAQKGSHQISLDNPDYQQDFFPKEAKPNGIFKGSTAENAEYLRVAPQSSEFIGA

PDGFR = settings: even at concentrations above 100 uM; cited from earlier work
mice [6] = test: LPS-induced lethal toxicity in mice
TNF-α [7] = test: LPS-induced production of TNF-α by activated murine peritoneal macrophages in vitro
Method: The amount of TNF-α was quantitated by assessing the extent of killing of the TNF-α sensitive cell line (A9) essentially as described by Ruff and Gilford, G. E. J. Immunol. […] Briefly, mouse A9 fibroblasts were plated in 96-well flat-bottom micro-titer plates at 30,000 cells /0.1 ml to establish a dense monolayer. After incubation for 24 hr at 37 C in a humidified 5% CO2 atmosphere, cycloheximide was added to a final concentration of 50 ug/ml and 100 ul of serially diluted test samples were added to the wells. After incubation for additional 18 hr the supernatants were carefully aspirated, the monolayer were washed twice with PBS and 200 ul of neutral red solution (0.02%) was added. After incubation for 2 hr, cells were washed and the dye that had been absorbed by the live cells was extracted using 200 ul of 50% ethanol. The concentration of the dye was determined by an ELISA autoreader using a 550 nm filter. Murine TNF-α ELISA kit from ENDOGEN Inc., was used for quancitation of murine TNF-α.
Mice were injected i.p. with 1 ml sodium periodate (5mM). Three to 4 days later, macrophages were washed from the peritoneal cavity with PBS. After centrifugation at 170g for 10 min at 40° C, the cell pellet was resuspended in RPMI 1640 containing 10% heat-inactivated new born calf serum. Adherent macrophage monolayers were obtained by plating the cells in 96-well plastic trays at 4x10^5 cells/well for 2 hr at 37°C in 5% CO2/air. Nonadherent cells were removed by suction and complete medium was added.

N#CC(C#N)=Cc1ccc([N+](=O)[O-])c(O)c1 [SSI 3]
serum TNF-α levels (TNF-α [1]; higher of two printed values, presumably bioassay, LPS alone 14): 4 ng/mL
serum TNF-α levels (TNF-α [1]; lower of two printed values, presumably ELISA, LPS alone 7): 3 ng/mL
Serum TNF-α (TNF-α [1]; LPS 200 µg/mouse, AG 300 µg/mouse 2 hrs prior to LPS, 1hr, mean (two single values)): 2.8 (1.2, 4.4) ng/ml
Serum TNF-α (TNF-α [1]; LPS 200 µg/mouse, AG 300 µg/mouse 2 hrs prior to LPS, 2hr, mean (two single values)): 3.6 (2.7, 4.5) ng/ml
Serum TNF-α (TNF-α [1]; no LPS (-), AG 300 µg/mouse, 1hr): 16.3 ng/mL
LPS induced NO production ([2]; 50 um, added 2 hours prior to LPS, 24 hours): markedly inhibit
NO production ([2]; 50 um, from an initial level of 70 uM (no LPS), 24 hours): ~30 µM
NO production ([2]; 50 um, from an initial level of 40 (10 ug/ml of LPS), 24 hours): approximately 20 uM
NO2- production in unstimulated and LPS-stimulated periodate-activated murine macrophages ([2]; LPS (10 mg/ml)): effectively inhibited
NO2- Production by Macrophages ([2]; SSI 20 uM, LPS 10 ug, 1 DAY): 30,2 µg
NO2- Production by Macrophages ([2]; SSI 20 uM, LPS 10 ug, 2 DAY): 91 µg
NO2- Production by Macrophages ([2]; SSI 20 uM, LPS 10 ug, 3 DAY): 90,1 µg
NO2- Production by Macrophages ([2]; SSI 20 uM, no LPS, 1 DAY): 11,8 µg
NO2- Production by Macrophages ([2]; SSI 20 uM, no LPS, 2 DAY): 17,5 µg
NO2- Production by Macrophages ([2]; SSI 20 uM, no LPS, 3 DAY): 7,5 µg
NO2- Production by Macrophages ([2]; SSI 50uM, LPS 10 ug, 1 DAY): 6,1 µg
NO2- Production by Macrophages ([2]; SSI 50uM, LPS 10 ug, 2 DAY): 31,4 µg
NO2- Production by Macrophages ([2]; SSI 50uM, LPS 10 ug, 3 DAY): 19,2 µg
NO2- Production by Macrophages ([2]; SSI 50 uM, no LPS, 1 DAY): 5 µg
NO2- Production by Macrophages ([2]; SSI 50 uM, no LPS, 2 DAY): 8,6 µg
NO2- Production by Macrophages ([2]; SSI 50 uM, no LPS, 3 DAY): 4,8 µg
LPS-induced tyrosine phosphorylation of a 42 kD protein (p42^MAPK): inhibited
blood glucose level (mice [3]; after 24 hours, SSI 3 400 ug/mouse or SSI 17 200 ug/mouse 2 hours prior to galactosamine (18 mg/mouse) and LPS (50 ng/mouse), 2 mice per group): approximately 100 % mg
hypoglycemia and mortality (mice [3]; mortality for over 5 days, SSI 3 400 ug/mouse or SSI 17 200 ug/mouse 2 hours prior to galactosamine and LPS): prevents
alteration in blood lymphocyte and granulocytes (granulocytes; LPS-induced): not affected
LPS-induced accumulation of granulocytes in the lungs (granulocytes; mouse, in vivo): not affected
mice survived (mice [4]; 200 ug/mouse, LPS 1.5 mg/mouse): 3 out of 5 mice
mice (still alive) (mice [4]; 12 h): 20 mice
mice (still alive) (mice [4]; 36 h): 18 mice
mice (still alive) (mice [4]; 60 h): 18 mice
blocking TNF-α induced cytotoxicity in vitro [5]: active
TNF-α induced cytotoxicity, in vitro ([5]; A9 cells, 24 hours with TNF, cyclohexamide 50 ug/ml, tyrphostins added 2 hr prior to TNF, neutral red): reduced
TNF toxicity (percentage of live cells) ([5]; SSI 3 50 uM, SSI 16 2 uM, SSI 17 2 and 10 uM, A9 cells with cyclohexamine, viability after 20 hours, TNF 0.2, 0.05 and 1.0 ng/ml): prevent TNF toxicity to different degrees
effect on EGF receptor (EGF receptor): no effect
effect on PDGFR (PDGFR): no effect
extent of lethality (mice [6]; 400 ug/mouse i.p. two hrs prior to LPS 1.5 mg/mouse, within 5 days, 2 mice out of 20, LPS alone 95%): 10%
minimal dose that provided essentially full protection against LPS induced lethal toxicity (mice [6]; LPS 1.5 mg/mouse, administered 2 hours prior to LPS): 400 ug/mouse
protective effect on the LPS-induced lethal toxicity (mice [6]; administered 2 hours after LPS): essentially no protective effect
preventing the lethal toxicity (mice [6]; administered at the time of LPS treatment, compared with 2 hr prior to LPS): less effective
protection against LPS induced lethal toxicity (mice [6]; doses of 100 and 200 ug/mouse, 5 mice over 6 days): partial protection
TNF-α (TNF-α [7]; LPS +): <5 pg/mL
TNF-α (TNF-α [7]; LPS -): <5 pg/mL
ability to inhibit LPS-induced production of TNF-α by activated murine peritoneal macrophages in vitro (TNF-α [7]; among the tyrphostins tested): most potent
